The record followed here is ChEMBL document CHEMBL5137049, “Discovery of a Novel Small-Molecule Inhibitor Disrupting TRBP-Dicer Interaction against Hepatocellular Carcinoma via the Modulation of microRNA Biogenesis” (J Med Chem, 2022).

The test system of one experiment is HepG2. In words: Downregulation of miR-221 expression in human HepG2 cells at 10 uM incubated for 6 hrs by qRT-PCR analysis. The format is functional. In general terms: Quantitative PCR measures a nucleic acid by following its amplification.
The subject of experiment [1] is SK-HEP1. The experiment is described as follows: Downregulation of miR-18a expression in human SK-HEP1 cells at 10 uM by qRT-PCR analysis. It is filed as functional, cell-based.
The test system of experiment [2] is SK-HEP1. In words: Downregulation of N-cadherin expression level in TRBP siRNA transfected human SK-HEP1 cells incubated for 48 hrs by Western blotting analysis. It is filed as functional, cell-based. (A western blot detects proteins with antibodies after separation by electrophoresis.)

Activity calls are given as the source filed them. The rule behind the calls is not given here.

In the experiment on HepG2, `CCOC(=O)c1nc(-c2ccc(OC)cc2)oc1C` gave an Activity of 60%. Further, the outcome with SK-HEP1 [1] and in the experiment on SK-HEP1 [2] was Active.
